Measurements taken from ChEMBL document CHEMBL5620342, “Recent advances of novel fourth generation EGFR inhibitors in overcoming C797S mutation of lung cancer therapy” (Eur J Med Chem, 2023).
Blank lines part the entries; values can stand above or below the molecule they belong to.

How the values were obtained:
PC-9 [1] = experiment: Antiproliferative activity against human PC-9 cells assessed as inhibition of cell growth incubated for 72 hrs by MTT assay; format: functional, cell-based; conditions: PC-9, 72 h
BaF3 [2] = experiment: Cytotoxicity against mouse BaF3 cells harboring EGFR-Del19/T790M/C797S mutant assessed as cell growth inhibition measured after 72 hrs by CellTiter-Glo luminescent assay; format: functional, cell-based; conditions: BaF3, 72 h
PC-9 [3] = experiment: Antiproliferative activity against human PC-9 cells expressing EGFR Del19 mutant assessed as inhibition of cell growth measured after 72 hrs by MTT assay; format: functional, cell-based; conditions: PC-9, 72 h
BaF3 [4] = experiment: Antiproliferative activity against mouse BaF3 cells harboring EGFR L858R/T790M/C797S triple mutant after 72 hrs by resazurin dye-based fluorescence assay; format: functional, cell-based; conditions: BaF3, 72 h
cells = conditions: Mus musculus, Ba/F3 EGFR-T790M/C797S/L858R
[5] = biological target: T1, Epidermal growth factor receptor (Homo sapiens, UniProt P00533, C797S/L858R/T790M); experiment: Inhibition of EGFR L858R/T790M/C797S mutant (unknown origin) using TK-substrate preincubated with enzyme for 30 mins followed by substrate for 10 mins by HTRF assay
T1 sequence (P00533 25-1210 T790M/C797S/L858R limits assumed): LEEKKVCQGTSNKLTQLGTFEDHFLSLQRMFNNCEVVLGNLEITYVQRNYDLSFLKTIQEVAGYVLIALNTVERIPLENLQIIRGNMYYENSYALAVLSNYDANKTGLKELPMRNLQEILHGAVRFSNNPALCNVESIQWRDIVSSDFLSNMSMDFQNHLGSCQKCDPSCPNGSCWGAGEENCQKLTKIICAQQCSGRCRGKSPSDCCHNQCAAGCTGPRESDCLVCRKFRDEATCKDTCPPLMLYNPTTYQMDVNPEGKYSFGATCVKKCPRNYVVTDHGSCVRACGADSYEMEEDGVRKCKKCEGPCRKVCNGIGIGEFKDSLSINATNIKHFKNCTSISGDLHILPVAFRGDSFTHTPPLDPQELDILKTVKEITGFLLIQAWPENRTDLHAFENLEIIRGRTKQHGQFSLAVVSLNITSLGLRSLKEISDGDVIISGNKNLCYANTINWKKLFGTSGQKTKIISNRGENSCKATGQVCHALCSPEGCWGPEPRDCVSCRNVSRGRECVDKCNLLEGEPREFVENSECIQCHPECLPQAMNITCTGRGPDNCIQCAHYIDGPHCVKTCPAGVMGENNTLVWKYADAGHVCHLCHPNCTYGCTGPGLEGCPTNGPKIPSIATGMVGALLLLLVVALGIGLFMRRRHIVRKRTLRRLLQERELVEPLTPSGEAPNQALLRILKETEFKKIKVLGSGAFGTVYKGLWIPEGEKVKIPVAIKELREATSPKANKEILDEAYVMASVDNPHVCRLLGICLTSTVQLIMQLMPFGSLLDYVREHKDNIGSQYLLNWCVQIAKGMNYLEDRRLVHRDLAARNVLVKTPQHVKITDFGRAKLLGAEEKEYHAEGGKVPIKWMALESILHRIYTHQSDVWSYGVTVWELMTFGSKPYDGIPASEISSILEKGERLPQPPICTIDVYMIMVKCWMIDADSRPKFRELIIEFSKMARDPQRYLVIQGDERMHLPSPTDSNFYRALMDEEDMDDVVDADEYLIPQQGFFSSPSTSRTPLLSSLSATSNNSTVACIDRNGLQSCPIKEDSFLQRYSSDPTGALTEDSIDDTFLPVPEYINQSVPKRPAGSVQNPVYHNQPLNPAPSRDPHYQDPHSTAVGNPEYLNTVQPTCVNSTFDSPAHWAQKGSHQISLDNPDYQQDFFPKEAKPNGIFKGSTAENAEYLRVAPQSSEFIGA

[6] = Inhibition of EGFR T790M/C797S double mutant (unknown origin); design: species or system Homo sapiens
[7] = biological target: Epidermal growth factor receptor (Homo sapiens, UniProt P00533); experiment: Inhibition of wild type EGFR (unknown origin) by ELISA analysis
Chain of Epidermal growth factor receptor (Homo sapiens, UniProt P00533) (P00533 whole entry): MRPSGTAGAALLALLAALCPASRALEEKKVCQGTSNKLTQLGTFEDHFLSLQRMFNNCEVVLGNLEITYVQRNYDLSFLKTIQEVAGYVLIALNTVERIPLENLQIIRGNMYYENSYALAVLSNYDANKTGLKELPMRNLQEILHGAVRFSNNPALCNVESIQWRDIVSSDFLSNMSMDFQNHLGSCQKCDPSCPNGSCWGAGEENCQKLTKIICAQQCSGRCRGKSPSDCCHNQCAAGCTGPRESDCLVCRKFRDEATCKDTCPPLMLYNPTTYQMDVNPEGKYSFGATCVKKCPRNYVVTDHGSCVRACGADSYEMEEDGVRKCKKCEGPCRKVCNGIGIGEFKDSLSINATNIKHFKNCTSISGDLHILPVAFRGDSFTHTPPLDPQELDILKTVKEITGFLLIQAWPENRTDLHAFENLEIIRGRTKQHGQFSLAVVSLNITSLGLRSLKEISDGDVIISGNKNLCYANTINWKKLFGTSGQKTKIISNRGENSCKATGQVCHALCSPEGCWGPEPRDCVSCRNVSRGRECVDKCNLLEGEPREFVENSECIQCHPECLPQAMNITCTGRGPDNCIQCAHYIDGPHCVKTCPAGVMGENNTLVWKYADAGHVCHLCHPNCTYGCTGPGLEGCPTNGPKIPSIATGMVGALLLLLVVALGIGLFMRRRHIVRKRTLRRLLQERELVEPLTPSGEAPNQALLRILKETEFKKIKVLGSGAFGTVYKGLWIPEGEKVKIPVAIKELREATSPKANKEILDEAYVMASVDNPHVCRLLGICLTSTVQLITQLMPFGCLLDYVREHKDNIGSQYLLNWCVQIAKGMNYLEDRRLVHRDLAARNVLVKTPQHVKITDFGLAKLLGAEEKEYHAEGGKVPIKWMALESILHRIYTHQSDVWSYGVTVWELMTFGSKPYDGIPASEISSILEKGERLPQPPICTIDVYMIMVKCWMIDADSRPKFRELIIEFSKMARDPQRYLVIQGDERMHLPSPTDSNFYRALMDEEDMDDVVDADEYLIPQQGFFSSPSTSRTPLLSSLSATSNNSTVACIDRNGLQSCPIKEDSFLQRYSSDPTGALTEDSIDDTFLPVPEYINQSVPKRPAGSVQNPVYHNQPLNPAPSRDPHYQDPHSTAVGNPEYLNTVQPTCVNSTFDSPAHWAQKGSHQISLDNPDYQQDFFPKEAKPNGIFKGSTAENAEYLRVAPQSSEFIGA

BaF3 [8] = experiment: Inhibition of EGFR phosphorylation in mouse BaF3 cells harboring EGFR L858R/T790M/C797S triple mutant at 10 uM by Western blotting analysis; format: cell-based
[9] = biological target: T1, Epidermal growth factor receptor; experiment: (§1) Inhibition of […]/T790M/C797S triple mutant (unknown origin) phosphorylation expressed in mouse BaF3 cells by HTRF assay; format: cell-based
A-431 [10] = experiment: Cytotoxicity against human A-431 cells expressing wild type EGFR assessed as reduction in cell viability incubated for 96 hrs by CellTiter-Glo assay; format: functional, cell-based; conditions: A-431, 96 h
NIH3T3 = experiment: Antiproliferative activity against mouse NIH3T3 cells expressing EGFR Del19/T790M/C797S mutant assessed as reduction in cell proliferation incubated for 72 hrs by MTT assay; format: functional, cell-based; conditions: NIH3T3, 72 h
[11] = biological target: T1, Epidermal growth factor receptor; experiment: Inhibition of EGFR L858R/T790M/C797S triple mutant (unknown origin) expressed in Bac-to-Bac baculovirus expression system measured after 2 hrs by ELISA method
A-431 [12] = experiment: Antiproliferative activity against human A-431 cells […] assessed as reduction in cell growth; format: functional, cell-based
BaF3 [13] = experiment: Cytotoxicity against mouse BaF3 cells expressing EGFR L858R mutant assessed as reduction in cell viability; format: functional, cell-based
BaF3 [14] = experiment: Inhibition of cell proliferation of mouse BaF3 cells expressing EGFR Del19/T790M/C797S mutant (unknown origin); format: functional, cell-based
BaF3 [15] = experiment: Cytotoxicity against mouse BaF3 cells harboring wild type EGFR assessed as reduction in cell viability incubated for 72 hrs by CellTiter-Glo assay; format: functional, cell-based; conditions: BaF3, 72 h
BaF3 [16] = experiment: Cytotoxicity against mouse BaF3 cells harboring EGFR L858R/T790M/C797S mutant assessed as reduction in cell viability incubated for 96 hrs by CellTiter-Glo assay; format: functional, cell-based; conditions: BaF3, 96 h
[17] = Oral bioavailability in CD-1 mouse at 3 mg/kg measured after 24 hrs by LC-MS/MS analysis; format: ADME, organism-based; conditions: in vivo
BaF3 [18] = experiment: Cytotoxicity against mouse BaF3 cells harboring EGFR-Del19/T790M/C797S mutant assessed as cell growth inhibition measured after 96 hrs by CellTiter-Glo luminescent assay; format: functional, cell-based; conditions: BaF3, 96 h
BaF3 [19] = experiment: Antiproliferative activity against mouse BaF3 cells harboring wild type EGFR assessed as reduction in cell growth; format: functional, cell-based
PC-9 [20] = experiment: Antitumor activity in OR-resistant human PC-9 cells xenografted in […] assessed as tumor growth inhibition at 60 mg/kg, po administered once daily for 14 days relative to control; format: functional; conditions: PC-9, 336 h, time 14 day, read-out: TGI
PC-9 [21] = experiment: Antitumor activity in OR-resistant human PC-9 cells xenografted in […] assessed as tumor growth inhibition at 30 mg/kg, po administered once daily for 14 days relative to control; format: functional; conditions: PC-9, 336 h, time 14 day, read-out: TGI
[22] = Inhibition of EGFR-C797S/T790M/del19 mutant in mouse BaF3 cells assessed as reduction in EGFR phosphorylation incubated for 6 hrs by Western blotting analysis; format: cell-based; conditions: BaF3, 6 h
[23] = biological target: T1, Epidermal growth factor receptor; experiment: Inhibition of EGFR L858R/T790M/C797S triple mutant (unknown origin)
[24] = biological target: Epidermal growth factor receptor (Homo sapiens, UniProt P00533, T790M/C797S/L858R); experiment: as §1; format: cell-based; conditions: baf3
Chain of Epidermal growth factor receptor (Homo sapiens, UniProt P00533, T790M/C797S/L858R) (P00533 25-1210 T790M/C797S/L858R limits assumed): as the sequence (P00533 25-1210 T790M/C797S/L858R limits assumed) above

SMILES: C=CC(=O)Nc1cc(Nc2nccc(-c3cn(C)c4ccccc34)n2)c(OC)cc1N(C)CCN(C)C [OSIMERTINIB]
- IC50 (PC-9 [1]): 4850 nM
- IC50 (BaF3 [2]): 3380 nM
- IC50 (PC-9 [3]): 80 nM
- IC50 (BaF3 [4]): 4140 nM

SMILES: Cc1cc(N2CCN(C(c3ccccc3)c3ccccc3)CC2)nc2ccc(Cl)cc12
- IC50 [5]: 136 nM
- IC50 [6]: 10.5 nM
- IC50 [7]: 7.92 nM

SMILES: Oc1ccccc1-c1nc(NCC2CCOC2)c2ccccc2n1 (configuration not stated)
- inhibition (BaF3 [8]): 91%

SMILES: CC(C)n1c2cc(Nc3ccnc(-c4cnn(S(=O)(=O)C5CC5)c4)n3)ncc2c2c(OCC(F)(F)F)cc(N3CCN(C)CC3)cc21
- IC50 (A-431 [10]): 1200 nM
- IC50 (NIH3T3): 20 nM
- IC50 [9]: 0.25 nM
- IC50 [11]: 0.28 nM
- IC50 (A-431 [12]): 1200 nM

SMILES: N#Cc1ccc(O)c(-c2nc(NCc3cccnc3)c3ccccc3n2)c1
- inhibition (BaF3 [8]): 94.2%

SMILES: COc1cc(N2CCN(C(C)=O)CC2)ccc1Nc1ncc(Cl)c(Nc2ccc(NCc3ccc(S(=O)(=O)F)cc3)cc2)n1
- IC50 (BaF3 [13]): 110 nM
- IC50 (BaF3 [14]): > 10000 nM

SMILES: c1ccc(-c2cc(N3Cc4ccccc4C3)nc3ccccc23)cc1
- IC50 [5]: 124 nM
- IC50 [6]: 11.2 nM
- IC50 [7]: 7.9 nM

SMILES: O=C(Nc1nccs1)C(c1cc(F)ccc1O)N1Cc2ccccc2C1=O (configuration not stated)
- IC50 (BaF3 [15]): > 10000 nM
- IC50 (BaF3 [16]): > 10000 nM

SMILES: Cc1cc(N2Cc3ccccc3C2)nc2ccc(Cl)cc12
- IC50 [5]: 130 nM
- IC50 [6]: 10.8 nM
- IC50 [7]: 7.59 nM

SMILES: COc1ccc(-c2c3c4cc(OCCCN(C)C)c(OCCCN(C)C)cc4oc(=O)c3n3ccc4cc(O)c(OC)cc4c23)cc1O
- IC50 (BaF3 [18]): 127 nM
- IC50 (BaF3 [19]): 520 nM

Continued, in another order:

- IC50 (cells): 20 nM
SMILES: COc1cc(N2CCN(CCCCCCCC(=O)N[C@@H](C(=O)N3C[C@@H](O)C[C@@H]3C(=O)N[C@H](C)c3ccc(-c4nc(C)cs4)cc3)C(C)(C)C)CC2)ccc1Nc1ncc(Cl)c(Nc2ccccc2P(C)(C)=O)n1

- IC50 [9]: 10 nM
SMILES: CN1CCN(c2ccc(Nc3ncc4cc(CNc5ccccc5)n(C5CCCC5)c4n3)cc2)CC1

- IC50 (BaF3 [14]): 3.2 nM
SMILES: CO[C@@H]1CCN(c2nccc(Nc3cc4c(C(C)C)ccc(N5C[C@H](CS(C)(=O)=O)[C@H]5C)c4cn3)n2)C[C@@H]1F [TIGOZERTINIB]
- IC50 (BaF3 [16]): 4 nM

- bioavailability [17]: 62.3%
SMILES: COc1cc(N2CCC(N3CCN(CCC#Cc4cccc5c4CN(C4CCC(=O)NC4=O)C5=O)CC3)CC2)ccc1Nc1ncc(Cl)c(Nc2ccccc2P(C)(C)=O)n1 (configuration not stated)

- IC50 (BaF3 [14]): 316 nM
SMILES: CCC(=O)N[C@H]1CC[C@@H](N2C(=O)N(c3ccccc3Cl)Cc3cnc(Nc4ccc(N5CCN(C)CC5)c(C)c4)nc32)CC1
- IC50 (BaF3 [16]): 290 nM

- IC50 (PC-9 [1]): 180 nM
- IC50 (PC-9 [3]): 230 nM
- IC50 (BaF3 [4]): 120 nM
- IC50 [22]: 2.4 nM
- IC50 [23]: 3.1 nM
SMILES: CN1CCN(c2ccc(Nc3ncc(Cl)c(Nc4ccccc4P(C)(C)=O)n3)c(Br)c2)CC1
- IC50 (BaF3 [2]): 90 nM
- inhibition in vivo at 60 mg/kg (PC-9 [20]): 137%
- inhibition in vivo at 30 mg/kg (PC-9 [21]): 83.5%

- IC50 [24]: 266 nM
SMILES: CNC(=O)c1cnc(Nc2ccnc(N3CCC(O)CC3)n2)cc1NC(C)C
